The text below walks through data of patent US20250034170A1, “SMALL MOLECULE MODULATORS OF GLUCOCEREBROSIDASE ACTIVITY AND USES THEREOF” (Vanqua Bio, Inc., priority 2021, published 2025).

In one test the target is T1, GCase (Homo sapiens, UniProt P04062).
T1 construct: endogenous in cells; host or cells: HeLa cells
T1 sequence (P04062 40-536): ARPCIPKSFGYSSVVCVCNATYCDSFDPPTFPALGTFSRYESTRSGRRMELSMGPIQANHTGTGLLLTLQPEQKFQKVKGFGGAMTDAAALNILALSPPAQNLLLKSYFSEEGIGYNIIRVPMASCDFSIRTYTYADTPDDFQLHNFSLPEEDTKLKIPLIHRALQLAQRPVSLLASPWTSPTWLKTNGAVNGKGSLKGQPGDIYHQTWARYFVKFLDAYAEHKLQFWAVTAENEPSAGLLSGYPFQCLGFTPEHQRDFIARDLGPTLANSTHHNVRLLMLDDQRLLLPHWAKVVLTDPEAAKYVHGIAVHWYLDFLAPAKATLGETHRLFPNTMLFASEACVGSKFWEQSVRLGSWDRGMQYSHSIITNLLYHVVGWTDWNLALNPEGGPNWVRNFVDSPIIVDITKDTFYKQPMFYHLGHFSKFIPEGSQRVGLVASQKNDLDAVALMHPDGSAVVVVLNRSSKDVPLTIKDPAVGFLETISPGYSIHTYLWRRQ
As to the kind of experiment: activation of GCase in a live cell PFB assay in HELA cells. It counts as cell-based. The settings on record: EC50 given as range classes. The protocol:
Exemplary compounds were evaluated for activation of GCase in a live cell PFB assay in HELA cells (essentially as described in Ysselstein et al., “LRRK2 kinase activity regulates lysosomal glucocerebrosidase in neurons derived from Parkinson's disease patients” Nature Communications (2019) 10:5570). […] EC50 ranges: A: <10 μM; B: >10-50 μM; C: >50-100 μM; D: >100 μM.
With `Cn1c(=O)n(C2COC2)c2nc(N3CCC4(CN(c5ccnc(C(F)(F)F)c5)C4)C3)cnc21` [Cmpd 978], the EC50 was < 10 µM.

Take `Cn1c(=O)n(C2COC2)c2ncc(N3CCC4(CN(c5ccnc(C(F)(F)F)c5)C4)C3)nc21` [Cmpd 979]: the EC50 is < 10 µM.

Regarding `CCn1c(=O)n(CC(F)F)c2nc(N3CCC4(CN(c5ccnc(C(F)(F)F)c5)C4)C3)cnc21` [Cmpd 980], the EC50 was < 10 µM.

In turn, `CCn1c(=O)n(C2COC2)c2nc(N3CCC4(CN(c5ccnc(C(F)(F)F)c5)C4)C3)cnc21` [Cmpd 981] had a 50% effective concentration (EC50) of 10 to 50 µM.

On to `CCn1c(=O)n(C2COC2)c2ncc(N3CCC4(CN(c5ccnc(C(F)(F)F)c5)C4)C3)nc21` [Cmpd 982], for which the EC50 was in the range of 10 to 50 µM.

For the compound `CCN1C(=O)N(c2ccnc(C(F)(F)F)c2)C(=O)C12CCN(c1cnc3cnn(C4COC4)c3n1)CC2` [Cmpd 983], the EC50 lay in the range of 10 to 50 µM.

As to `CCN1C(=O)N(c2ccnc(C(F)(F)F)c2)C(=O)C12CCN(c1cnc3c(C)nn(C4COC4)c3n1)CC2` [Cmpd 984], the concentration for a half-maximal effect (EC50) is < 10 µM.

Turning to `Cc1nn(CC(F)F)c2nc(N3CCC4(CN(c5ccnc(C(F)(F)F)c5)C4)C3)cnc12` [Cmpd 985], the EC50 was > 100 µM.

Consider `FC(F)(F)c1cc(N2CC3(CCN(c4nccc(-c5nncs5)n4)C3)C2)ccn1` [Cmpd 986], for which the EC50 is < 10 µM.

`FC(F)(F)c1cc(N2CC3(CCN(c4cnc5cnn(C6COC6)c5n4)C3)C2)ccn1` [Cmpd 987]: the EC50 is > 100 µM.

On to `Cn1c(N2CCC3(CN(c4cnc(C(F)(F)F)nc4)C3)C2)nc2c(cnn2CC(F)F)c1=O` [Cmpd 988], for which the EC50 was < 10 µM.

As to `Cn1c(N2CCC3(CN(c4ccnc(C(F)(F)F)c4)C3)C2)nc2c(cnn2CC(F)F)c1=O` [Cmpd 989], the concentration giving a half-maximal response (EC50) is > 100 µM.

For the compound `CCn1ncc2c(=O)n(C)c(N3CCC4(CN(c5cnc(C(F)(F)F)nc5)C4)C3)nc21` [Cmpd 990], the EC50 is < 10 µM.

For the compound `Cn1c(N2CCC3(CN(c4ccnc(C(F)(F)F)n4)C3)C2)nc2c(cnn2CC(F)F)c1=O` [Cmpd 991], the EC50 is < 10 µM.

`Cn1c(N2CCC3(CN(c4ccnc(C(F)(F)F)c4)C3)C2=O)nc2c(cnn2CC(F)F)c1=O` [Cmpd 992] yielded an EC50 of 10 to 50 µM.

In the case of `Cn1c(N2CCC3(CN(c4ccnc(C(F)(F)F)c4)C3)C2)nc2c(cnn2C2COC2)c1=O` [Cmpd 993], the EC50 lay in the range of 50 to 100 µM.

With `Cc1nn(CC(F)F)c2nc(N3CCC4(CN(c5ccnc(C(F)(F)F)c5)C4)C3)n(C)c(=O)c12` [Cmpd 994], the EC50 is < 10 µM.

For `Cc1nn(C2COC2)c2nc(N3CCC4(CN(c5ccnc(C(F)(F)F)c5)C4)C3)n(C)c(=O)c12` [Cmpd 995], the EC50 was < 10 µM.

`Cn1c(N2CCC3(CN(c4ccc(C(F)(F)F)cn4)C3)C2)nc2c(cnn2CC(F)F)c1=O` [Cmpd 996] displayed an EC50 of 10 to 50 µM.

Consider `Cn1c(N2CCC3(CN(c4ccc(C(F)(F)F)nc4)C3)C2)nc2c(cnn2CC(F)F)c1=O` [Cmpd 997], for which the EC50 is < 10 µM.

Compound `Cn1c(N2CC3(CC2=O)CN(c2ccnc(C(F)(F)F)c2)C3)nc2c(cnn2CC(F)F)c1=O` [Cmpd 998] registered an EC50 of 10 to 50 µM.

The compound `O=C1N(c2ncc3cnn(CC(F)F)c3n2)CCC12CN(c1ccnc(C(F)(F)F)c1)C2` [Cmpd 999] registered an EC50 of 10 to 50 µM.

On to `Cc1nn(CC(F)F)c2nc(N3CCC4(CN(c5ccnc(C(F)(F)F)c5)C4)C3=O)ncc12` [Cmpd 1000], for which the concentration giving a half-maximal response (EC50) was < 10 µM.

As for `Cc1nn(CC(F)F)c2nc(N3CCC4(CN(c5ccnc(C(F)(F)F)c5)C4)C3=O)cnc12` [Cmpd 1001], the EC50 is < 10 µM.

`Cc1nn(C2COC2)c2nc(N3CCC4(CN(c5ccnc(C(F)(F)F)c5)C4)C3=O)cnc12` [Cmpd 1002]: the EC50 is < 10 µM.

`O=C1N(c2cnc3cnn(C4COC4)c3n2)CCC12CN(c1ccnc(C(F)(F)F)c1)C2` [Cmpd 1003]: the EC50 fell in the range of 10 to 50 µM.

`O=C1N(c2ncc3cnn(C4COC4)c3n2)CCC12CN(c1ccnc(C(F)(F)F)c1)C2` [Cmpd 1004]: the EC50 is 10 to 50 µM.

`O=C1CC2(CN(c3ccnc(C(F)(F)F)c3)C2)CN1c1ncc2cnn(CC(F)F)c2n1` [Cmpd 1005] yielded an EC50 of 10 to 50 µM.

`Cc1nn(CC(F)F)c2nc(N3CC4(CC3=O)CN(c3ccnc(C(F)(F)F)c3)C4)ncc12` [Cmpd 1006] gave a 50% effective concentration (EC50) of 10 to 50 µM.

Take `Cc1nn(CC(F)F)c2nc(N3CC4(CC3=O)CN(c3ccnc(C(F)(F)F)c3)C4)cnc12` [Cmpd 1007]: the EC50 is < 10 µM.

`O=C1CC2(CN(c3ccnc(C(F)(F)F)c3)C2)CN1c1ncc2cnn(C3COC3)c2n1` [Cmpd 1008] yielded an EC50 of 10 to 50 µM.

Compound `Cc1nn(C2COC2)c2nc(N3CC4(CC3=O)CN(c3ccnc(C(F)(F)F)c3)C4)ncc12` [Cmpd 1009] yielded an EC50 of 10 to 50 µM.

The compound `O=C1N(c2cnc3cnn(CC(F)F)c3n2)CCC12CN(c1ccc(C(F)(F)F)nc1)C2` [Cmpd 1010] came in with a concentration giving a half-maximal response (EC50) of 50 to 100 µM.

`O=C1N(c2cnc3cnn(CC(F)F)c3n2)CCC12CN(c1ccc(C(F)(F)F)cn1)C2` [Cmpd 1011] had an EC50 of 10 to 50 µM.

`O=C1N(c2cnc3cnn(CC(F)F)c3n2)CCC12CN(c1cnc(C(F)(F)F)nc1)C2` [Cmpd 1012]: the EC50 was in the range of 10 to 50 µM.

Regarding `Cn1c(N2CCC3(CCN(c4ccnc(C(F)(F)F)c4)C3)CC2)nc2c(cnn2CC(F)F)c1=O` [Cmpd 1013], the EC50 is < 10 µM.

With `Cn1c(N2CCC3(CCN(c4ccnc(C(F)(F)F)n4)C3)CC2)nc2c(cnn2CC(F)F)c1=O` [Cmpd 1014], the EC50 was < 10 µM.

In turn, `Cn1c(N2CCC3(CCN(c4cnc(C(F)(F)F)nc4)C3)CC2)nc2c(cnn2CC(F)F)c1=O` [Cmpd 1015] came in with an EC50 of 10 to 50 µM.

As for `Cn1c(N2CCC3(CCN(c4cnc(C(F)(F)F)nc4)C3)CC2)nc2c(cnn2CC(F)(F)F)c1=O` [Cmpd 1016], the EC50 was < 10 µM.

In turn, `Cn1c(N2CCC3(CN(c4ccnc(C(F)(F)F)c4)C3)C2)nc2c(cnn2CC(F)(F)F)c1=O` [Cmpd 1017] registered an EC50 of 10 to 50 µM.

`Cn1c(N2CCC3(CN(c4cnc(C(F)(F)F)nc4)C3)C2)nc2c(cnn2CC(F)(F)F)c1=O` [Cmpd 1018] had a concentration for a half-maximal effect (EC50) of 10 to 50 µM.

Regarding `CCn1c(N2CCC3(CC2)CC(=O)N(c2ccnc(C(F)(F)F)c2)C3)nc2c(cnn2CC(F)F)c1=O` [Cmpd 1019], the EC50 was < 10 µM.

For `Cc1nn(CC(F)F)c2nc(N3CCC4(CC3)CC(=O)N(c3ccnc(C(F)(F)F)c3)C4)n(C)c(=O)c12` [Cmpd 1020], the EC50 was < 10 µM.

Compound `COc1ncc(N2CCC3(CN(c4ccnc(C(F)(F)F)c4)C3)C2)nc1-c1nncs1` [Cmpd 1021] showed a 50% effective concentration (EC50) of 10 to 50 µM.

As to `COc1ncc(N2CCC3(CN(c4cnc(C(F)(F)F)nc4)C3)C2)nc1-c1nncs1` [Cmpd 1022], the EC50 is > 100 µM.

In the case of `FC(F)(F)c1cc(N2CC3(CCN(c4cncc(-c5nnc(C(F)(F)F)s5)n4)C3)C2)ccn1` [Cmpd 1023], the EC50 is < 10 µM.

The test is the same for the next values; noted with them: activation of GCase, EC50 ranges.
Compound `CCc1sc(C(F)(F)F)nc1N1CC2(CCN(c3cnc4cnn(CC(F)F)c4n3)CC2)CC1=O` [Cmpd 973] gave a concentration for a half-maximal effect (EC50) of 10 to 50 µM.

As to `Cc1ncc(CN2CC3(CCN(c4cnc5cnn(CC(F)F)c5n4)CC3)CC2=O)o1` [Cmpd 974], the EC50 lay within 50 to 100 µM.

On to `Cc1cnc(CN2CC3(CCN(c4cnc5cnn(CC(F)F)c5n4)CC3)CC2=O)s1` [Cmpd 975], for which the half-maximal effective concentration (EC50) fell in the range of 10 to 50 µM.

For `CCc1cnc(CN2CC3(CCN(c4cnc5cnn(CC(F)F)c5n4)CC3)CC2=O)s1` [Cmpd 976], the EC50 is < 10 µM.

On to `Cn1c(=O)n(CC(F)F)c2nc(N3CCC4(CN(c5ccnc(C(F)(F)F)c5)C4)C3)cnc21` [Cmpd 977], for which the 50% effective concentration (EC50) lay within 10 to 50 µM.
